# Read-outs that look alike come from different tables or passages of the source.
# Assays:
# [1] = Pharmacokinetic experiments in rabbits (intravenous, equimolar); assay type: in vivo; settings: rabbit
# Procedure: Two rabbits of same body weight were intravenously administered equimolar voriconazole sodium phosphate and voriconazole, respectively, and an equal volume of blood was drawn from the rabbits at different time intervals, and a metabolism status in body was determined.
# [2] = Hydroscopicity comparison (moisture absorption, 25° C. and 80% humidity, 24 hours); assay type: physicochemical
# [3] = assay type: physicochemical
# Procedure: Sample injection was carried out by using a sample prepared by allowing the sample in Example 17 to absorb moisture, and the results are shown in Table 5.
# Aspergillus fumigatus = experiment: Diffused aspergillosis in guinea pigs; assay type: in vivo
# Procedure: (§1) In all experiments, particular pathogen-free guinea pigs (body weight of 400-500 g) were used. A conduit was placed in the left jugular vein of the […] infected with Aspergillus fumigatus (4,000 CFU/g body weight) or Candida albicans (4,000 CFU/g body weight) via the lateral veins of penis of the animal or via the implanted conduit. One hour after infection, the animals were subject to an intravenous therapy (5 mg/kg/day). The mean survival time (MST) and the percent survival (% sur) were recorded for each group experimental animals (the number of each group of experimental animals is listed in column “N”) within respective number of days. The amounts of […] in deep tissues (such as liver, spleen, kidney, lung, or brain) were investigated in animals which died during the experiment and in animals which survived the experiment but were later sacrificed in respective groups. “% neg” in Table 1 represents the percent of deep tissues that were culture-negative after treatment.
# Candida albicans = experiment: Diffused candidiasis in guinea pigs; assay type: in vivo; settings: intravenous 5 mg/kg/day
# Procedure: as §1
# [4] = Aspergillus fumigatus, intravenous 5 mg/kg/day
compound,measurement,setting,value
C[C@@H](c1ncncc1F)[C@](O)(Cn1cncn1)c1ccc(F)cc1F [voriconazole],"parent nucleus (voriconazole) in blood, peak area","[1]; in vivo, iv, 30 min",378.34 peak area
same,"parent nucleus (voriconazole) in blood, peak area","[1]; in vivo, iv, 60 min",321.69 peak area
same,"parent nucleus (voriconazole) in blood, peak area","[1]; in vivo, iv, 120 min",150.45 peak area
same,"parent nucleus (voriconazole) in blood, peak area","[1]; in vivo, iv, 150 min",78.35 peak area
same,"parent nucleus (voriconazole) in blood, peak area","[1]; in vivo, iv, 200 min",29.71 peak area
same,"parent nucleus (voriconazole) in blood, peak area","[1]; in vivo, iv, 250 min",0.234 peak area
Voriconazole phosphate anhydrate [reference compound],"Sample weight, 0 hour",[2],0.3938 g
same,"Sample weight, 24 hours",[2]; 24 hours,0.4627 g
same,hydroscopicity (in words),[2]; 24 hours,significant hydroscopicity
same,stability under highly humid conditions (in words),[3],extremely unstable
same,"Individual impurity, by weight",[3]; 0 hour,Individual impurity 0.07%
same,"Total impurity, by weight",[3]; 0 hour,Total impurity 0.10%
voriconazole sodium phosphate,metabolism in body (in words),[1]; intravenous,can be metabolized into voriconazole in body
same,"Prodrug in blood, peak area","[1]; intravenous, 30 min",235.92 peak area
same,"parent nucleus (voriconazole) in blood, peak area","[1]; intravenous, 30 min",0.324 peak area
same,"Prodrug in blood, peak area","[1]; intravenous, 60 min",143.51 peak area
same,"parent nucleus (voriconazole) in blood, peak area","[1]; intravenous, 60 min",86.42 peak area
same,"Prodrug in blood, peak area","[1]; intravenous, 120 min",98.59 peak area
same,"parent nucleus (voriconazole) in blood, peak area","[1]; intravenous, 120 min",158.32 peak area
same,"Prodrug in blood, peak area","[1]; intravenous, 150 min",2.045 peak area
same,"Prodrug in blood, peak area","[1]; intravenous, 200 min",0 peak area
same,"parent nucleus (voriconazole) in blood, peak area","[1]; intravenous, 200 min",130.38 peak area
same,"Prodrug in blood, peak area","[1]; intravenous, 250 min",0 peak area
same,"parent nucleus (voriconazole) in blood, peak area","[1]; intravenous, 250 min",69.23 peak area
same,potency against fungal infection (in words),"Aspergillus fumigatus; Aspergillus fumigatus or Candida albicans infection, conclusion from Table 7",very potent against fungal infection
voriconazole sodium phosphate hydrate,"Sample weight, 0 hour",[2],0.3318 g
same,"Sample weight, 24 hours",[2]; 24 hours,0.3441 g
same,"Weight increase by moisture absorption, by weight",[2]; 24 hours,3.6%
same,hydroscopicity (in words),[2]; 24 hours,mild hydroscopicity
same,"Individual impurity, by weight",[3]; 0 hour,Individual impurity 0.06%
same,"Total impurity, by weight",[3]; 0 hour,Total impurity 0.09%
same,"Individual impurity, by weight",[3]; 24 hour moisture absorption,Individual impurity 0.08%
same,"Total impurity, by weight",[3]; 24 hour moisture absorption,Total impurity 0.13%
same,change in impurity after absorbing moisture (in words),[3]; 24 hours,minor change in impurity
same,MST (mean survival time),"Aspergillus fumigatus; Aspergillus fumigatus 4,000 CFU/g body weight, intravenous 5 mg/kg/day",6.2 days
same,% neg (percent of deep tissues culture-negative after treatment),Aspergillus fumigatus; [4],70%
same,% sur (percent survival),Aspergillus fumigatus; [4],66.4%
same,g (liver): CFU/g in culture-positive liver,Aspergillus fumigatus; [4],3.5 mean log 10 CFU/g
same,MST (mean survival time),"Candida albicans; Candida albicans 4,000 CFU/g body weight",9.5 days
same,% neg (percent of deep tissues culture-negative after treatment),Candida albicans; Candida albicans,69%
same,% sur (percent survival),Candida albicans; Candida albicans,76.9%
same,g (liver): CFU/g in culture-positive liver,Candida albicans; Candida albicans,0 mean log 10 CFU/g

# Source: US9650400B2, “Voriconazole sodium phosphate hydrates and polymorphs thereof” (SHAANXI SYNTHETIC PHARMACEUTICAL CO., LTD., priority 2013, dated 2017)
